Tests used:
Assay in all cases: relative viability (nuclei count vs DMSO), 5 days (fraction); higher = more cells survive
Dabrafenib + Bortezomib = compound: CC(C)(C)c1nc(-c2cccc(NS(=O)(=O)c3c(F)cccc3F)c2F)c(-c2ccnc(N)n2)s1 [Dabrafenib] + CC(C)C[C@H](NC(=O)[C@H](Cc1ccccc1)NC(=O)c1cnccn1)B(O)O [Bortezomib] (partner 0.002 µM)
Method in brief: (§1)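 For relative viability, nuclei counts in treated wells were divided by those in vehicle wells. Lung cancer cell lines had been pin-tool dosed in 1536-well plates the day after seeding and cultured for 5 days, then fixed and stained in one step (final 0.05% Triton X-100, 1% formaldehyde, 1 ug/ml Hoechst) and imaged at 4×. Doses were one drug alone or a fixed anchor-drug dose plus five library-drug doses (not always all listed) in √10 steps, and values are duplicate-plate medians.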

Dabrafenib + Olaparib = compound: CC(C)(C)c1nc(-c2cccc(NS(=O)(=O)c3c(F)cccc3F)c2F)c(-c2ccnc(N)n2)s1 [Dabrafenib] + O=C(c1cc(Cc2n[nH]c(=O)c3ccccc23)ccc1F)N1CCN(C(=O)C2CC2)CC1 [Olaparib] (partner 8 µM)
Method in brief: as §1

Dabrafenib + Lapatinib = compound: CC(C)(C)c1nc(-c2cccc(NS(=O)(=O)c3c(F)cccc3F)c2F)c(-c2ccnc(N)n2)s1 [Dabrafenib] + CS(=O)(=O)CCNCc1ccc(-c2ccc3ncnc(Nc4ccc(OCc5cccc(F)c5)c(Cl)c4)c3c2)o1 [Lapatinib] (partner 2 µM)
Method in brief: as §1

Dabrafenib + Tozasertib = compound: CC(C)(C)c1nc(-c2cccc(NS(=O)(=O)c3c(F)cccc3F)c2F)c(-c2ccnc(N)n2)s1 [Dabrafenib] + Cc1cc(Nc2cc(N3CCN(C)CC3)nc(Sc3ccc(NC(=O)C4CC4)cc3)n2)n[nH]1 [Tozasertib] (partner 0.1 µM)
Method in brief: as §1

| Cell Line | relative viability (Dabrafenib + Bortezomib; first compound 0.009487 µM) | relative viability (Dabrafenib + Bortezomib; first compound 0.3 µM) | relative viability (Dabrafenib + Olaparib; first compound 0.009487 µM) | relative viability (Dabrafenib + Olaparib; first compound 0.03 µM) | relative viability (Dabrafenib + Olaparib; first compound 0.09487 µM) | relative viability (Dabrafenib + Olaparib; first compound 0.3 µM) | relative viability (Dabrafenib + Lapatinib; first compound 0.003 µM) | relative viability (Dabrafenib + Lapatinib; first compound 0.009487 µM) | relative viability (Dabrafenib + Lapatinib; first compound 0.03 µM) | relative viability (Dabrafenib + Lapatinib; first compound 0.09487 µM) | relative viability (Dabrafenib + Lapatinib; first compound 0.3 µM) | relative viability (Dabrafenib + Tozasertib; first compound 0.009487 µM) | relative viability (Dabrafenib + Tozasertib; first compound 0.03 µM) | relative viability (Dabrafenib + Tozasertib; first compound 0.09487 µM) | relative viability (Dabrafenib + Tozasertib; first compound 0.3 µM) | relative viability (Dabrafenib + Bortezomib; first compound 0.03 µM) | relative viability (Dabrafenib + Bortezomib; first compound 0.09487 µM) | relative viability (Dabrafenib + Bortezomib; first compound 0.003 µM) | relative viability (Dabrafenib + Olaparib; first compound 0.003 µM) | relative viability (Dabrafenib + Tozasertib; first compound 0.003 µM) |
| --- | --- | --- | --- | --- | --- | --- | --- | --- | --- | --- | --- | --- | --- | --- | --- | --- | --- | --- | --- | --- |
| NCI-H2347 | 1.2 | 0.84 | 0.629 | 0.552 | 0.553 | 0.599 | 0.631 | 1.02 | 0.918 | 0.897 | 0.89 | 0.548 | 0.344 | 0.621 | 0.496 | – | – | – | – | – |
| NCI-H2405 | 0.91 | 0.959 | 0.838 | 0.674 | 0.804 | 0.89 | – | 0.804 | – | 0.853 | 0.937 | 0.799 | – | 0.647 | 0.726 | 0.766 | 0.867 | – | – | – |
| NCI-H3122 | 1.01 | 1.1 | 0.605 | 0.647 | 0.508 | 0.562 | 1.05 | 1.08 | 1.04 | 0.959 | 1.08 | 0.449 | 0.391 | 0.374 | 0.367 | 1.12 | 1.06 | 1.04 | 0.631 | 0.427 |
| PC-3 [JPC-3] | 0.9 | 0.857 | 1.24 | 1.18 | 1.07 | 1.24 | 0.448 | 0.509 | 0.416 | 0.434 | 0.429 | 0.957 | 0.941 | 0.827 | 0.929 | 0.773 | 0.875 | 0.745 | – | 0.934 |
| PC-14 | 0.846 | 1.03 | 0.293 | 0.241 | 0.283 | 0.338 | 0.282 | 0.418 | 0.363 | 0.317 | 0.364 | 0.631 | 0.647 | 0.527 | 0.624 | 0.817 | 0.919 | 0.968 | 0.237 | – |

Reference: the supplement of paper PMC10307832
